According to patent US20060275812A1, “Assay for agonists and antagonists of ion channels and for regulators of genetic expression” (University of Pittsburgh of the Commonwealth System of …, priority 2005, published 2006):

System: vTT infected 7b cells
Assay: Detection of apoptosis (DePsipher MPT; CaspACE activated caspases)
Type: cell-based
Details: overnight capsaicin (3 μm) stimulation
Description: Detection of Apoptosis. The DePsipher kit (R&D systems, Minneapolis, Minn.) was used to detect the initiation of mitochondrial permeability transition (MPT) in 7b cells. Briefly, vTT or QOZ infected cells (12 hpi, 0.1 PFU/cell) were incubated with 3 μm capsaicin for one hour at 37° C. in a 5% CO2 incubator. Cells were then loaded with 1 μl DePsipher/ml in pre-warmed culture media for 15-20 min at 37° C. in a 5% CO2 incubator. Following two washes in prewarmed media, cells were immediately imaged using an inverted fluorescence microscope (Carl Zeiss Inc.). For activated caspase detection, the CaspACE FITC-VAD-FMK In-Situ Marker kit (Promega, Madison, Wis.) was used. Briefly, CaspACE FITC-VAD-FMK was added to a final concentration of 10 μM to 7b cells infected with vTT or QOZ virus (12 hpi, 0.3 PFU/cell). Cells were incubated for 20 minutes at 37° C. in a 5% CO2 incubator. Following two washes in PBS, cells were fixed for 30 minutes in 10% formalin, washed three times with PBS and imaged using an inverted fluorescence microscope (Carl Zeiss Inc.).

`COc1cc(CNC(=O)CCCC/C=C/C(C)C)ccc1O` [capsaicin] was tested, and the activated caspases was “positive”.
